Here are results for nine molecules from ChEMBL document CHEMBL4477227, “Synthesis and antibacterial evaluation of macrocyclic diarylheptanoid derivatives” (Bioorg Med Chem Lett, 2016).

By MIC is commonly meant the smallest concentration in the dilution series that meets the test's criterion for growth inhibition. A word on the IC50: it is the concentration needed to halve the response being measured.

Assay [1] relates to Mycobacterium tuberculosis. Kind of assay: Antitubercular activity against Mycobacterium tuberculosis H37Rv by microbroth dilution method. It is filed as functional. Particulars: Mycobacterium tuberculosis, H37Rv; read-out: MIC. A general note: In broth dilution the organism is exposed to a series of concentrations in liquid medium.
Assay [2] concerns Bacillus anthracis. The experiment in a line: Antibacterial activity against Bacillus anthracis Sterne 34F2 by microbroth dilution method. Particulars: Bacillus anthracis, Sterne 34F2; read-out: MIC. It is filed as functional.
The subject of assay [3] is Enterococcus faecalis. Kind of assay: Antibacterial activity against Enterococcus faecalis ATCC 33186 by microbroth dilution method. It is filed as functional. The conditions noted are these: Enterococcus faecalis, ATCC 33186; read-out: MIC.
Assay [4] concerns Staphylococcus aureus. Kind of assay: Antibacterial activity against methicillin-sensitive Staphylococcus aureus ATCC 29213 by microbroth dilution method. It counts as functional. Particulars: Staphylococcus aureus, ATCC 29213; read-out: MIC.
The subject of assay [5] is Staphylococcus aureus. The experiment in a line: Antibacterial activity against methicillin-resistant Staphylococcus aureus NRS70 by microbroth dilution method. It is filed as functional. Particulars: Staphylococcus aureus, NRS70; read-out: MIC.
Assay [6] relates to Streptococcus pyogenes. The experiment in a line: Antibacterial activity against Streptococcus pyogenes ATCC 700294 by microbroth dilution method. It counts as functional. The conditions noted are these: Streptococcus pyogenes, ATCC 700294; read-out: MIC.
Assay [7] deals with Streptococcus pneumoniae. The experiment in a line: Antibacterial activity against Streptococcus pneumoniae R6 by microbroth dilution method. It counts as functional. Particulars: Streptococcus pneumoniae, R6; read-out: MIC.
The test system of assay [8] is Bacillus subtilis. The experiment in a line: Antibacterial activity against Bacillus subtilis ATCC 23857 by microbroth dilution method. Particulars: Bacillus subtilis, ATCC 23857; read-out: MIC. It counts as functional.
In assay [9] the test system is Acinetobacter baumannii. The experiment in a line: Antibacterial activity against Acinetobacter baumannii ATCC 19606 by microbroth dilution method. It counts as functional, ATCC 19606 = CIP 70.34 = JCM 6841. Particulars: Acinetobacter baumannii, ATCC 19606 = CIP 70.34 = JCM 6841; read-out: MIC.
The subject of assay [10] is Escherichia coli. Kind of assay: Antibacterial activity against Escherichia coli K-12 by microbroth dilution method. It counts as functional.
In assay [11] the test system is Escherichia coli. The experiment in a line: Antibacterial activity against Escherichia coli harboring TolC deletion mutant by microbroth dilution method. It is filed as functional. The conditions noted are these: Escherichia coli; read-out: MIC.
Assay [12] relates to Burkholderia cepacia. Kind of assay: Antibacterial activity against Burkholderia cepacia ATCC 25416 by microbroth dilution method. It is filed as functional.
Assay [13] concerns Klebsiella pneumoniae. Kind of assay: Antibacterial activity against Klebsiella pneumoniae ATCC 33495 by microbroth dilution method. It is filed as functional.
Assay [14] deals with Proteus mirabilis. The experiment in a line: Antibacterial activity against Proteus mirabilis ATCC 25933 by microbroth dilution method. It counts as functional.
Assay [15] concerns Proteus vulgaris. The experiment in a line: Antibacterial activity against Proteus vulgaris ATCC 33420 by microbroth dilution method. It is filed as functional.
Assay [16] relates to Pseudomonas aeruginosa. The experiment in a line: Antibacterial activity against Pseudomonas aeruginosa PAO1 by microbroth dilution method. It is filed as functional.
The subject of assay [17] is Vero. Kind of assay: Cytotoxicity against African green monkey Vero cells assessed as reduction in cell viability after 72 hrs by CellTiterGlo assay. It is filed as cell-based. Particulars: Chlorocebus sabaeus.
Assay [18] has as its system J774.1. The experiment in a line: Inhibition of LPS-induced NO production in mouse J774.1 cells after 24 by Griess assay. It is filed as functional, cell-based.

Converted amounts (≈) assume the structure as drawn.

Regarding `COc1ccc2cc1Oc1cc(ccc1OC)CCC(NCCc1ccc(Br)cc1)CCCC2` (stereo unspecified), the MIC was found to be 25 µg/mL (≈ 47.7 µM) in assay [1]; 12.5 µg/mL (≈ 23.8 µM) in [2]; 12.5 µg/mL (≈ 23.8 µM) in [3]; 12.5 µg/mL (≈ 23.8 µM) in [4]; 12.5 µg/mL (≈ 23.8 µM) in assay [5]; 50 µg/mL (≈ 95.3 µM) in [6]. The MIC in [7] is 50 µg/mL (≈ 95.3 µM); in assay [8], 6.25 µg/mL (≈ 11.9 µM); in assay [9], 50 µg/mL (≈ 95.3 µM); in [10] it was more than 100 µg/mL; in [11], 12.5 µg/mL (≈ 23.8 µM); in assay [12], more than 100 µg/mL. The MIC in [13], in assay [14], in assay [15] and in [16] was more than 100 µg/mL each time. Moreover, the IC50 in assay [17] came out at 6.9 µg/mL (≈ 13.2 µM).
As for `Oc1ccc2cc1Oc1cc(ccc1O)CCC(NCCc1ccccc1)CCCC2` (stereo unspecified), the MIC in [1] is 25 µg/mL (≈ 59.9 µM); in assay [2], 50 µg/mL (≈ 120 µM); in assay [3], 50 µg/mL (≈ 120 µM); in [4], more than 100 µg/mL; in assay [5] it was 50 µg/mL (≈ 120 µM); in assay [6], 50 µg/mL (≈ 120 µM). Besides, the MIC in [7] is 50 µg/mL (≈ 120 µM); in [8], 25 µg/mL (≈ 59.9 µM); in [9] it was 50 µg/mL (≈ 120 µM); in assay [10], 100 µg/mL (≈ 239 µM); in [11], 25 µg/mL (≈ 59.9 µM); in assay [12], more than 100 µg/mL. The MIC in assay [13], in [14], in assay [15] and in [16] was more than 100 µg/mL throughout. Also, the IC50 in assay [17] came to 11.1 µg/mL (≈ 26.6 µM).
As to `COc1ccc2cc1Oc1cc(ccc1OC)CCC(NCCc1ccc(F)cc1)CCCC2` (stereo unspecified), the MIC turned out to be 25 µg/mL (≈ 53.9 µM) in assay [1]; 25 µg/mL (≈ 53.9 µM) in [2]; 25 µg/mL (≈ 53.9 µM) in [3]; 25 µg/mL (≈ 53.9 µM) in assay [4]; 12.5 µg/mL (≈ 27 µM) in assay [5]; 25 µg/mL (≈ 53.9 µM) in assay [6]. For the same molecule, the MIC is 50 µg/mL (≈ 108 µM) in assay [7]; 12.5 µg/mL (≈ 27 µM) in assay [8]; 25 µg/mL (≈ 53.9 µM) in [9]; more than 100 µg/mL in assay [10]; 12.5 µg/mL (≈ 27 µM) in assay [11]; more than 100 µg/mL in assay [12]. For the same molecule, the MIC in assay [13], in assay [14], in assay [15] and in assay [16] was more than 100 µg/mL throughout. Further, the IC50 in assay [17] was found to be 7.3 µg/mL (≈ 15.7 µM).
Regarding `COc1ccc2cc1Oc1cc(ccc1OC)CCC(NCCc1ccc3ccccc3c1)CCCC2` (stereo unspecified), the MIC amounted to 25 µg/mL (≈ 50.4 µM) in assay [1]; 12.5 µg/mL (≈ 25.2 µM) in assay [2]; 12.5 µg/mL (≈ 25.2 µM) in assay [3]; 12.5 µg/mL (≈ 25.2 µM) in [4]; 6.25 µg/mL (≈ 12.6 µM) in assay [5]; 12.5 µg/mL (≈ 25.2 µM) in assay [6]. The MIC was 25 µg/mL (≈ 50.4 µM) in [7]; 6.25 µg/mL (≈ 12.6 µM) in assay [8]; more than 100 µg/mL in assay [9]; more than 100 µg/mL in assay [10]; 6.25 µg/mL (≈ 12.6 µM) in assay [11]; more than 100 µg/mL in [12]. The MIC in [13], in [14], in assay [15] and in assay [16] was more than 100 µg/mL in each case. Further, in [17], the IC50 worked out at 7 µg/mL (≈ 14.1 µM).
Consider `COc1ccc2cc1Oc1cc(ccc1OC)CCC(NCCc1ccc(Cl)cc1)CCCC2` (stereo unspecified), for which the MIC in assay [1] amounted to 25 µg/mL (≈ 52.1 µM); in assay [2] it was 12.5 µg/mL (≈ 26 µM); in assay [3] it was 12.5 µg/mL (≈ 26 µM); in assay [4], 12.5 µg/mL (≈ 26 µM); in [5] it was 12.5 µg/mL (≈ 26 µM); in assay [6], 12.5 µg/mL (≈ 26 µM). Further, the MIC was 25 µg/mL (≈ 52.1 µM) in assay [7]; 6.25 µg/mL (≈ 13 µM) in assay [8]; 25 µg/mL (≈ 52.1 µM) in assay [9]; more than 100 µg/mL in [10]; 6.25 µg/mL (≈ 13 µM) in [11]; more than 100 µg/mL in assay [12]. In addition, the MIC in assay [13], in assay [14], in [15] and in assay [16] was more than 100 µg/mL in each case. Besides, in [17], the IC50 was found to be 6.8 µg/mL (≈ 14.2 µM).
As for `COc1ccc2cc1Oc1cccc(c1)CCC(NCCc1ccc(F)cc1)CC2` (stereo unspecified), the MIC amounted to 25 µg/mL (≈ 61.7 µM) in assay [1]; 50 µg/mL (≈ 123 µM) in assay [2]; 50 µg/mL (≈ 123 µM) in [3]; 25 µg/mL (≈ 61.7 µM) in [4]; 25 µg/mL (≈ 61.7 µM) in assay [5]; 50 µg/mL (≈ 123 µM) in assay [6]. Besides, the MIC was 50 µg/mL (≈ 123 µM) in [7]; 25 µg/mL (≈ 61.7 µM) in assay [8]; 50 µg/mL (≈ 123 µM) in assay [9]; more than 100 µg/mL in assay [10]; 12.5 µg/mL (≈ 30.8 µM) in assay [11]; more than 100 µg/mL in [12]. The minimal inhibitory concentration (MIC) in [13], in assay [14], in [15] and in assay [16] was more than 100 µg/mL in each case.
As to `COc1ccc2cc1Oc1cc(ccc1OC)CCC(NC/C=C(\C)CCC=C(C)C)CCCC2` (stereo unspecified), the MIC came to 12.5 µg/mL (≈ 26.2 µM) in [1]; 12.5 µg/mL (≈ 26.2 µM) in assay [2]; 12.5 µg/mL (≈ 26.2 µM) in assay [3]; 12.5 µg/mL (≈ 26.2 µM) in assay [4]; 6.25 µg/mL (≈ 13.1 µM) in assay [5]; 25 µg/mL (≈ 52.3 µM) in assay [6]. In addition, the MIC in assay [7] was 50 µg/mL (≈ 105 µM); in assay [8], 3.12 µg/mL (≈ 6.54 µM); in [9], 25 µg/mL (≈ 52.3 µM); in assay [10], 50 µg/mL (≈ 105 µM); in assay [11], 6.25 µg/mL (≈ 13.1 µM); in [12], more than 100 µg/mL. Moreover, the MIC in assay [13], in assay [14], in [15] and in assay [16] was more than 100 µg/mL in each case. Besides, the IC50 in assay [17] was 5.6 µg/mL (≈ 11.7 µM).
For `COc1ccc2cc1Oc1ccc(cc1)CCC(NCCc1ccc(F)cc1)CCCC2` (stereo unspecified), the MIC is 12.5 µg/mL (≈ 28.8 µM) in assay [1]; 12.5 µg/mL (≈ 28.8 µM) in [2]; 12.5 µg/mL (≈ 28.8 µM) in assay [3]; 12.5 µg/mL (≈ 28.8 µM) in [4]; 6.25 µg/mL (≈ 14.4 µM) in assay [5]; 25 µg/mL (≈ 57.7 µM) in [6]. The MIC in assay [7] was 50 µg/mL (≈ 115 µM); in assay [8] it was 6.25 µg/mL (≈ 14.4 µM); in assay [9], 50 µg/mL (≈ 115 µM); in assay [10], more than 100 µg/mL; in [11], 6.25 µg/mL (≈ 14.4 µM); in assay [12], more than 100 µg/mL. Besides, the MIC in [13], in [14], in assay [15] and in [16] was more than 100 µg/mL in each case. Also, in assay [17], the IC50 was 3.7 µg/mL (≈ 8.53 µM).
For the molecule `O=C1CCCCc2ccc(OC(=O)c3ccccc3)c(c2)Oc2ccc(cc2)CC1`, 13 µM corresponded to half-maximal inhibition in [18] (IC50).
